Data published in article PMC12544700, “Identification of a Small Secretoneurin Derivative That Inhibits CaMKIIδ Activity” (Journal of Cellular and Molecular Medicine, 2025).
Peptide text beside a SMILES is read from it. * marks the point of attachment. Biotin = O=C1N[C@H]2[C@H](CS[C@H]2CCCCC(=O)*)N1; Ahx = NCCCCCC(=O)O

Assays:
[1] = molecular target: T1, Recombinant rat CaMKIIδ‐T287D (Rattus norvegicus, UniProt P15791, T287D); assay: ELISA-based competition assay with T‐site binding peptides; conditions: 5 μL 1 mM biotin‐SN‐db‐short with 20 μL 1 mM untagged competitor; Figure 2C, n = 4–12
T1 construct: Recombinant human His‐CaMKIIδ‐T287D and rat His‐CaMKIIδ‐T287D full‐length proteins; His; purchased Genscript Corp (custom made)
Procedure: The wells were then washed five times with 1× PBS‐t. […] For the competition assay, 20 μL (1 mM) of T‐site binding peptides AKAP18δ‐N1, CN21 or CN27 (without any biotin tags) were incubated in the same well with 5 μL (1 mM) of SN biotinylated peptides.

adult rat cardiomyocytes [2] = assay: Ca2+ imaging (sparks, waves, transients) with ISO stimulation; type: cell-based; conditions: ISO 100 nM
Procedure: Male Wistar rats (Janvier, France) weighing ~300 g were sedated in an anaesthesia chamber by inhalation of 5% isoflurane and 95% O2. The heart was excised under deep surgical anaesthesia, cannulated, and then retrogradely perfused through the aorta on a modified Langendorff setup with cell isolation solution containing (in mM, pH adjusted to 7.4, 37°C): NaCl 130, Hepes 25, D‐glucose 22, KCl 5.4, MgCl2 0.5, NaH2PO4 0.4, and a flow rate of 4 mL/min. After the heart was cleaned of blood, collagenase type II (2 mg/mL, Worthington Biochemical Corp, Lakewood, NJ, USA) was added to the perfusate, and the hearts digested for ~10 min. Following digestion, hearts were cut down, and the left ventricle dissected into pieces, which were transferred into 10 mL cell isolation solution with 250 μL BSA (40 mg/mL) and ~0.2 mg Deoxyribonuclease I (Worthington Biochemical Corporation, Lakewood, NJ, USA). After light agitation (~2 min), the supernatant was filtered (200 μm nylon mesh), and isolated cardiomyocytes were allowed to sediment by gravity. The cardiomyocytes were then washed in isolation buffer containing 1 mg/mL BSA, with a stepwise increase in Ca^2+ concentration up to 0.2 mM. Animal experiments were approved by the Norwegian Research Authority (FOTS ID: 30114). Adult rat cardiomyocytes were treated with 10 μM of SN, SN‐db‐short or scram in 0.2 mM Ca^2+ cell isolation solution for 1 h. These loading concentrations are higher than those used in our previous studies of SN, where we had sought to examine endogenous, circulating levels, rather than potentially therapeutic levels applied exogenously. […] Ca^2+ transients were recorded in linescan mode using a Zeiss LSM 7 Live confocal microscope (Jena, Germany), at a frame rate of 1.5 ms and a pixel size of 0.16 μm. These recordings were normalised to resting fluorescence values to create F/F0 images and assess Ca^2+ transient amplitude. The rate of Ca^2+ transient decline was assessed by measurements of the decay time constant (Tau). Spontaneous sparks and waves were measured during a 9 s pause in the electrical excitation. […]

adult rat cardiomyocytes [3] = assay: Caffeine-elicited Ca2+ transients (Ca2+ extrusion); type: cell-based; conditions: 10 mM caffeine; whole‐cell photometry; Figure S3, n = 10–18, 4–6 rats
Procedure: Male Wistar rats (Janvier, France) weighing ~300 g were sedated in an anaesthesia chamber by inhalation of 5% isoflurane and 95% O2. The heart was excised under deep surgical anaesthesia, cannulated, and then retrogradely perfused through the aorta on a modified Langendorff setup with cell isolation solution containing (in mM, pH adjusted to 7.4, 37°C): NaCl 130, Hepes 25, D‐glucose 22, KCl 5.4, MgCl2 0.5, NaH2PO4 0.4, and a flow rate of 4 mL/min. After the heart was cleaned of blood, collagenase type II (2 mg/mL, Worthington Biochemical Corp, Lakewood, NJ, USA) was added to the perfusate, and the hearts digested for ~10 min. Following digestion, hearts were cut down, and the left ventricle dissected into pieces, which were transferred into 10 mL cell isolation solution with 250 μL BSA (40 mg/mL) and ~0.2 mg Deoxyribonuclease I (Worthington Biochemical Corporation, Lakewood, NJ, USA). […]
To estimate SR Ca^2+ content, Ca^2+ release was triggered by rapid exposure to 10 mM caffeine (Sigma) and recorded by whole‐cell photometry (Photon Technology International, Monmouth Junction, NJ, USA) with a 40× oil objective. Cells were first stimulated at 1 Hz in Hepes‐Tyrode (HT, see the paragraph above) solution containing CaCl2 until at least three stable Ca^2+ transients were recorded. […]

SN‐db‐short binding to CaMKIIδ‐T287D in presence of competitor peptides AKAP18δ‐N1, CN21, CN27 [1]: only marginally outcompeted | Rate of Ca2+ extrusion (Na+‐Ca2+ exchanger and plasma membrane Ca2+ ATPase activity) (adult rat cardiomyocytes [3]): no change
SMILES: CC(C)C[C@H](NC(=O)[C@H](CCC(=O)O)NC(=O)[C@H](CCC(N)=O)NC(=O)[C@H](Cc1ccccc1)NC(=O)[C@H](Cc1ccccc1)NC(=O)[C@H](CO)NC(=O)[C@H](CCC(=O)O)NC(=O)[C@H](Cc1ccccc1)NC(=O)[C@@H](NC(=O)[C@H](C)NC(=O)[C@H](CC(C)C)NC(=O)[C@H](CO)NC(=O)[C@H](CCC(N)=O)NC(=O)[C@@H]1CCCN1C(=O)[C@@H](NC(=O)[C@H](Cc1ccc(O)cc1)NC(=O)[C@H](CCC(N)=O)NC(=O)[C@H](CCC(=O)O)NC(=O)CCCCCNC(=O)CCCC[C@@H]1SC[C@@H]2NC(=O)N[C@@H]21)[C@@H](C)O)[C@@H](C)O)C(=O)NCC(=O)N[C@@H](CCCCN)C(=O)O [SN‐db‐short] ({Biotin-Ahx}-EQYTPQSLATFESFFQELGK-OH; N-terminus and C-terminus assumed)
ISO-induced increase of Ca2+ transient amplitude and acceleration of Ca2+ transient decay (adult rat cardiomyocytes [2]; 10 μM peptide 1 h, field stimulation 1 Hz, Figure 5B–D, n = 22–73, 3–6 rats): significantly attenuated | Ca2+ spark incidence under ISO (adult rat cardiomyocytes [2]; 10 μM peptide 1 h pre-treatment, 9 s pause after 1 Hz pacing, Figure 4D, n = 35–85 cells from 3 to 6 rats): strong reduction | Ca2+ wave incidence under ISO (adult rat cardiomyocytes [2]; 10 μM peptide 1 h pre-treatment, 9 s pause after 1 Hz pacing, Figure 4E, n = 35–66 cells from 3 to 5 rats): strong reduction
